Assay results: PubChem BioAssay (NCI)
Where “and” joins values, the source holds several entries; their conditions need not be identical. Equal values may be shown once.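 Each compound was tested at five concentrations against cells in 96-well plates for 48 hours. Abbreviation: GI50, concentration required for 50% inhibition of growth. TGI: concentration producing complete growth inhibition.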

Tests used:
Test in all cases: NCI anticancer screen, dose series, 48 h
[1] = test system: A498 renal
[2] = test system: CCRF-CEM leukemia
[3] = test system: MALME-3M melanoma
[4] = test system: OVCAR-3 ovarian
[5] = test system: RPMI-8226 leukemia
[6] = test system: SF-539 CNS
[7] = test system: SN12C renal
[8] = test system: HS 578T breast
[9] = test system: BT-549 breast
[10] = test system: PC-3 prostate

SMILES | TGI [1] | TGI [2] [µM] | TGI [3] [µM] | TGI [4] | TGI [5] | TGI [6] [µM] | TGI [7] [µM] | GI50 [1] [µM] | GI50 [8] [µM] | TGI [8] | GI50 [4] [µM] | GI50 [5] [µM] | GI50 [6] [µM] | GI50 [2] [µM] | GI50 [3] [µM] | GI50 [7] [µM] | GI50 [9] [µM] | TGI [9] [µM] | GI50 [10] [µM] | TGI [10] [µM]
C#CCNC(=O)NC(CCCNC(=O)OCc1ccccc1)C(=O)OCc1ccccc1 (stereo unspecified) | > 100 µM | > 100 | > 100 | > 100 µM | > 100 µM | > 100 | > 100 |  |  |  |  |  |  |  |  |  |  |  |  | 
N#CC1(c2nc3ccccc3o2)C(=O)C(=O)N(C2C3CC4CC(C3)CC2C4)C(=O)C1=O (stereo unspecified) | > 100 µM | > 100 | > 100 | > 100 µM | > 100 µM | > 100 | > 100 |  |  |  |  |  |  |  |  |  |  |  |  | 
COc1ccc2cc1Oc1ccc(cc1)C[C@H]1c3cc(c(OC)cc3CCN1C)Oc1c(OC)c(OC)cc3c1[C@H](C2)N(C)CC3 | 13.2 µM and 19.2 µM and > 100 µM |  |  | 15.7 µM and 28.7 µM | 20.3 µM and 5.21 µM |  |  | 5.98 | 13.1 | 19.1 µM and 28.2 µM and > 100 µM | 11.8 | 1.92 | 2.03 |  |  |  |  |  |  | 
CCOc1ccc(NC(=O)CC2Sc3ccccc3NC2=O)cc1 (stereo unspecified) | > 100 µM | > 100 | > 100 | > 100 µM | > 100 µM | > 100 | > 100 |  |  |  |  |  |  |  |  |  |  |  |  | 
CSC1=NC=CCN1C | > 100 µM | > 100 | > 100 | > 100 µM | > 100 µM |  | > 100 |  |  |  |  |  |  |  |  |  |  |  |  | 
COC(=O)C(C#N)=C1c2ccccc2Oc2ccccc21 | > 100 µM | > 100 | > 100 | 73.1 µM | 49.3 µM | > 100 | > 100 |  |  |  |  |  |  |  |  |  |  |  |  | 
COC1O[C@H]2CCN(C(=O)OCc3ccccc3)[C@H]2[C@H]1OCc1ccccc1 (stereo partly specified) | > 100 µM | > 100 | > 100 | > 100 µM | > 100 µM | > 100 | > 100 |  |  |  |  |  |  |  |  |  |  |  |  | 
CC(=O)[CH-]C(=O)c1ccccc1.CC(=O)[CH-]C(=O)c1ccccc1.CCCCCCCCCCCCCCCCCC(=O)[O-].CCCCCCCCCCCCCCCCCC(=O)[O-].[Ti+4] | 68.5 µM | 86.3 | > 100 | 38 µM | 55.4 µM | 31.3 | 73.5 | 25.7 |  |  | 18.9 | 21.6 | 17.2 | 23.2 | 36.7 | 29.9 |  |  |  | 
Cn1cc(NC(=O)c2cc(NC(=O)CCCCCCCCCCC(=O)Nc3cc(C(=O)Nc4cc(C(=O)NCCC(=N)N)n(C)c4)n(C)c3)cn2C)cc1C(=O)NCCC(=N)N |  | > 100 |  | > 100 µM |  | > 100 | > 100 |  |  |  |  |  |  |  |  |  |  |  |  | 
CNC(=O)c1ccccc1CC1(O)c2ccccc2Oc2ccccc21 | 37.5 µM | > 100 | > 100 |  | 91.7 µM | 40.8 | > 100 | 4.54 | 16.6 | 57.1 µM |  | 26.6 | 17.3 | 24.6 | 22.8 | 26 | 25.9 | > 100 | 13.1 | 99.3
O=C(C#Cc1c[nH]c(=O)[nH]c1=O)c1ccccc1Cl | 36.3 µM | 59.8 | 32.1 | 27.3 µM | 71.7 µM | 30 | 27.5 |  |  |  |  |  |  |  |  |  |  |  |  | 
Cc1cc(=O)cc2sc3c(C)cccc3nc1-2 | 41.7 µM | 59.4 | > 100 | 52 µM | 97 µM | 73.3 | 78.7 |  |  |  |  |  |  |  |  |  |  |  |  | 
CCOC(=O)C1(CC)CCCCC(=O)N1 (stereo unspecified) |  | > 100 | > 100 | > 100 µM |  |  | > 100 |  |  |  |  |  |  |  |  |  |  |  |  | 
O=[N+]([O-])[C@@H]1C2C=CC(C2)[C@H]1Cl (stereo partly specified) | > 100 µM | > 100 | > 100 | > 100 µM | > 100 µM | > 100 | > 100 |  |  |  |  |  |  |  |  |  |  |  |  | 
O=C(/C=C/c1ccc(Cl)cc1)c1ccc(Cl)cc1Cl |  |  |  | 18.4 µM | 11 µM | 17.9 | 20.9 |  | 11.7 | 25.9 µM | 9.19 | 1.42 | 9.68 |  |  | 9.96 | 7.44 | 14.8 | 11.2 | 31.7
N#Cc1c(-c2cccs2)c2c(=S)[nH]c(=S)[nH]c2[nH]c1=S |  |  |  | 98.8 µM | 73.6 µM | 48.1 | > 100 |  | 53.7 | 90.3 µM | 34.5 | 27.4 | 22 |  |  | 43 | 23.5 | 56.2 | 30.8 | > 100
CCOC(=O)C1=C(C)Nc2ccccc2S1 | > 100 µM | > 100 | > 100 | > 100 µM | > 100 µM | > 100 | > 100 |  |  |  |  |  |  |  |  |  |  |  |  | 
O=C1NC(c2ccc(O)cc2)C2CCC1C2 (stereo unspecified) | > 100 µM | > 100 | > 100 | > 100 µM | > 100 µM |  | > 100 |  |  |  |  |  |  |  |  |  |  |  |  | 
N/C(CC(=O)Nc1cc(C(F)(F)F)ccc1Cl)=N\O | > 100 µM |  | > 100 | > 100 µM | > 100 µM | > 100 | > 100 |  |  | > 100 µM |  |  |  |  |  |  |  | > 100 |  | > 100
CCC(C)C1NC(=O)c2nc(oc2-c2ccccc2)-c2csc(n2)-c2csc(n2)-c2nc(oc2C)-c2coc(n2)CNC(=O)C(C(C)CC)NC1=O (stereo unspecified) | 0.343 µM |  |  | 0.0642 µM |  | 0.239 |  | 0.16 | 0.0424 | 0.218 µM | 0.0201 |  | 0.111 |  |  |  | 0.0659 | 0.204 | < 0.0137 | 0.116
O=C1CCCN(c2ccccc2)N1 | > 100 µM |  | > 100 | > 100 µM | > 100 µM | > 100 | > 100 |  |  |  |  |  |  |  |  |  |  |  |  | 
Cc1ccccc1C(C#N)C(=O)C(=O)Nc1nc([N+](=O)[O-])cs1 (stereo unspecified) | > 100 µM |  | > 100 | > 100 µM |  | > 100 | > 100 |  |  |  |  |  |  |  |  |  |  |  |  | 
COc1ccc(-c2cc(-c3cc(Cl)ccc3Cl)nc3[nH]c(-c4cc(F)c(Cl)cc4Cl)cc(=O)c23)cc1 |  | 55.1 |  | > 100 µM | 69.1 µM | 55 | 76.8 |  | 8.19 | 50.4 µM | > 100 | 25 | 18.9 | 18.4 |  | 24.5 | 29.6 | > 100 | 39.3 | > 100
C=CCSC[C@H](NC(=O)COc1ccccc1)C(=O)NC(C(=O)OCc1ccc([N+](=O)[O-])cc1)=C(C)C | > 100 µM | > 100 | > 100 | > 100 µM | > 100 µM |  | > 100 |  |  |  |  |  |  |  |  |  |  |  |  | 
